Source: ChEMBL document CHEMBL1800008, “Design, synthesis and reactivity of C2-symmetric azobenzene-based amino acid-bis(propargyl sulfones)” (Bioorg Med Chem Lett, 2010)
Activity calls are given as the source filed them. The rule behind the calls is not given here.

How the values were obtained:
Format in all cases: nucleic-acid assay
Nucleic Acid [1] = experiment: Binding affinity to calf thymus DNA by absorption titration analysis; conditions: Bos taurus
Nucleic Acid [2] = experiment: Induction of Escherichia coli supercoiled pBR322 DNA cleavage at 0.02 mM after 48 hrs by densitometric analysis
Nucleic Acid [3] = experiment: Induction of Escherichia coli supercoiled pBR322 DNA cleavage at 0.02 mM after 48 hrs by gel electrophoresis analysis

CC(C)[C@H](NC(=O)COc1ccccc1/N=N/c1ccccc1OCC(=O)N[C@H](C(=O)OCC#CCS(=O)(=O)c1ccccc1)C(C)C)C(=O)OCC#CCS(=O)(=O)c1ccccc1
K (Nucleic Acid [1]): 11 ×10⁴ /M | Activity (Nucleic Acid [2]): Active | Activity (Nucleic Acid [3]): 20%

O=C(COc1ccccc1/N=N/c1ccccc1OCC(=O)N[C@@H](Cc1ccccc1)C(=O)OCC#CCS(=O)(=O)c1ccccc1)N[C@@H](Cc1ccccc1)C(=O)OCC#CCS(=O)(=O)c1ccccc1
K (Nucleic Acid [1]): 9 ×10⁴ /M | Activity (Nucleic Acid [2]): Active | Activity (Nucleic Acid [3]): 10%

O=S(=O)(CC#CCOc1ccccc1/N=N/c1ccccc1OCC#CCS(=O)(=O)c1ccccc1)c1ccccc1
Activity (Nucleic Acid [3]): 25%
